Experimental data published in patent US8344028B2, “Gamma-amino-butyric acid derivatives as GABAB receptor ligands” (XenoPort, Inc., priority 2009, dated 2013).

biological target: GABAB receptor (Homo sapiens, UniProt Q9UBS5); test: GABAB receptor agonist or partial agonist activity by binding, electrophysiology, cAMP and/or Ca2+ assay methods (Examples 83-86); assay type: cell-based
Procedure: An assay using rat cerebral cortex membranes was used to determine the affinity of GABAB receptor ligands for the GABAB receptor.
An assay buffer of 50 mM Tris pH 7.4 was prepared with 100 μM of isoguvacine, to block GABAA interactions. The assay buffer with isoguvacine was used for dilution of membranes, compounds, and radiolabel.
Rat cerebral cortex membranes were diluted in assay buffer at 1 mg/mL and aliquoted into a 96-well plate at 900 μL/well. Buffer or test compound were added at 20-times final concentration in the buffer at 50 μL/well. Membranes and test compounds or buffer were incubated for 10 min. at room temperature. Radiolableled [S—(R*,R*)]-[3-[[1-(3,4-dichlorophenyl)ethyl]amino]-2-hydroxypropyl](cyclohexylmethyl) phosphinic acid (CGP54626) was then added at 50 μL/well in the buffer at 1-10 nM concentration in 50 μl. […] The assay mixture was filtered using Brandell filtration apparatus and GFB filters, washed twice with 3 mL of 4° C., 50 mM Tris pH 7.4, buffer without isoguvacine. The filters were then dried at room temperature and the dried filters punched out and placed in individual vials. Three (3) mL of scintillation fluid was added to each vial and the radiolabel counted on the scintillation counter. The inverse amount of radiolabel was indicative of binding of a test compound to the GABAB receptor.
The following procedure was used to determine the level of intracellular cAMP. Recombinant HEK cells expressing the GABAB R1a2 receptor were used in the experiments. cAMP levels were measured using a cAMP XS^+ HitHunter™ Chemiluminescence Assay Kit (90-0075-02, GE Healthcare Biosciences Corp.). Cells were seeded overnight at 5,000 cells per well, in black, clear bottom 96-well plates. The following morning, cells were washed twice with 100 μL PBS per well. Forskolin was weighed out and dissolved in DMSO to a final concentration 100 mM. One-hundred (100) μM forskolin solutions were prepared in PBS with and without test compound at 1-times final concentration. Thirty (30) μL of the test solutions were added to the wells and incubated for 1 h at room temperature. The cAMP concentration was determined according to the protocol described in the cAMP assay kit, maintaining the plate at room temperature and in the dark. […] Each well was read for 6 seconds. The untransformed data was then analyzed.
The following procedure was used to determine the GABAB receptor agonist activity of a compound as reflected by activation of Ca^2+ signaling. HEK TREx cells expressing GABABR1a2 under tetracycline induction control, and Gqi chimeric protein (expressed constitutively), allowing GABABR coupling through the Ca^2+ signaling pathway were used in the experiments.
Cells were seeded in media containing tetracycline overnight at 100,000 cells/well, in black, clear-bottom, 96-well plates. The following morning, cells were washed twice with 100 μL HBSS buffer per well. Fluorescent Ca^2+ indicator dye was prepared using the materials and procedure described in the F362056 Fluo-4 NW Calcium Assay Kit (Invitrogen, Carlsbad, Calif.). Ten (10) mL of kit buffer and 100 μl of kit Probenecid were added to individual kit dye vials, and rolled back and forth several times to dissolve the dye. Cells were then loaded into the dye solution at 50 μL per well. The cells and dye were incubated for 30 min at 37° C., and then incubated for an additional 30 min at room temperature in the dark. Test compounds are dissolved in HBSS buffer at twice final concentration. Duplicate wells were used for each unique condition. Solution containing the test compound was added to the wells using a FLEXStation II (Molecular Devices, Sunnyvale, Calif.). Using the instrument in kinetic mode in which each well was read every 2 sec over a total collection time of 50 sec fluorescence was measured using an excitation wavelength 494 nm and a detection wavelength of 516 nm. A normalized fluorescence value for each well was calculated using the following procedure.

Chain of GABAB receptor (Q9UBS5 20-961): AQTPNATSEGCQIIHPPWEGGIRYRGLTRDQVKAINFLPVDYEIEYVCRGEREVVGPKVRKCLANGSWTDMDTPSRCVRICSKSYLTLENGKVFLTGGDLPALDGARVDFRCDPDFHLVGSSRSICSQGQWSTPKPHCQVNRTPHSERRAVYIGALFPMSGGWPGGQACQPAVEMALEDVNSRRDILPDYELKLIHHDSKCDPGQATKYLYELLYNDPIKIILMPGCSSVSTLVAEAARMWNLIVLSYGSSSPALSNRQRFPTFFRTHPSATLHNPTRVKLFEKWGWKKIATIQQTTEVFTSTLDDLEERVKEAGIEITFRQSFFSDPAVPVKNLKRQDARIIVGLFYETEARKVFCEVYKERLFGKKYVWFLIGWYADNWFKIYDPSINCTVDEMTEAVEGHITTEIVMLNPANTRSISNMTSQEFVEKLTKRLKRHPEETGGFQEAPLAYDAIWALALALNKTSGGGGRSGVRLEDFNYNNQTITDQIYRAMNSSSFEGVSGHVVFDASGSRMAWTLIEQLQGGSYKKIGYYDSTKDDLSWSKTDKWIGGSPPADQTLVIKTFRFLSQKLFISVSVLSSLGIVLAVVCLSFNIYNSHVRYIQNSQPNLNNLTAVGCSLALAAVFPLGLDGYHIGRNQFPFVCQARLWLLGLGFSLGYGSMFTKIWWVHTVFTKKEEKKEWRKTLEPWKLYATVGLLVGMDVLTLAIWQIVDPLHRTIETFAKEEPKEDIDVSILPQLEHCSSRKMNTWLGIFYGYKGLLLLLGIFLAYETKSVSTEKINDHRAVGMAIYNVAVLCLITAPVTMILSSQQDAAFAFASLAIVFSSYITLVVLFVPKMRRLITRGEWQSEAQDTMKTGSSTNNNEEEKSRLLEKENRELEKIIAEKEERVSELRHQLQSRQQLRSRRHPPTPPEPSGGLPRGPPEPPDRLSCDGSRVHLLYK
Chain of GABAB receptor (O75899 42-941 partner): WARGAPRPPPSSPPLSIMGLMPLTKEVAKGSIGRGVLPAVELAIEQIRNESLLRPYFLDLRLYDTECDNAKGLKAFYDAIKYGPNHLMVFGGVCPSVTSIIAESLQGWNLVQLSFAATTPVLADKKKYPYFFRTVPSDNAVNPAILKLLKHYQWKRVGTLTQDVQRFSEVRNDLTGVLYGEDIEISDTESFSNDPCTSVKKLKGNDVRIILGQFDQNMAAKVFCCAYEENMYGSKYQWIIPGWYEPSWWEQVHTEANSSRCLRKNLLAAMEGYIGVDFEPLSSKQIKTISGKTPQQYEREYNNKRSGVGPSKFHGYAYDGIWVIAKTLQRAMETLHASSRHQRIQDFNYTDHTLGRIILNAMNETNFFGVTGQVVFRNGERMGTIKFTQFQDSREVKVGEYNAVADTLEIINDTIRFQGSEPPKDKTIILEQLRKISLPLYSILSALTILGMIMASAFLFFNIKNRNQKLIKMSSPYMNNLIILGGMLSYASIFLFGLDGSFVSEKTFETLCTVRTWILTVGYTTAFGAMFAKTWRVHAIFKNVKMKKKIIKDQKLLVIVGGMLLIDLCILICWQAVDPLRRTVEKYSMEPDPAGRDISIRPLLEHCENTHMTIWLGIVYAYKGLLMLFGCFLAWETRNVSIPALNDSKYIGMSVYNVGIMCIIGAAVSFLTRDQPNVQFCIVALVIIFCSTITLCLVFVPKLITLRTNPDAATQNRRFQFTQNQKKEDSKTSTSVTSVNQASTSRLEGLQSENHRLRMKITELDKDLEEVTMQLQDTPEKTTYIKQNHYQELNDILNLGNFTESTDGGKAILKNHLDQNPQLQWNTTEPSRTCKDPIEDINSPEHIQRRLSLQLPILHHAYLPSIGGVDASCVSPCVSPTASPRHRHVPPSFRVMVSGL

GABAB receptor agonist or partial agonist activity | Structure (SMILES)
agonist or partial agonist activity | CN(C)c1cccc(-c2cc([C@H](CN)CC(=O)O)ccc2Cl)n1.Cl [(3R)-4-amino-3-{3-[6-(dimethylamino)(2-pyridyl)]-4-chlorophenyl}butanoic acid hydrochloride]
agonist or partial agonist activity | Cc1cc(C(=O)Nc2cc([C@H](CN)CC(=O)O)ccc2Cl)n(C)n1 [(3R)-4-amino-3-{3-[(1,3-dimethylpyrazol-5-yl)carbonylamino]-4-chlorophenyl}butanoic acid]
agonist or partial agonist activity | NC[C@H](CC(=O)O)c1ccc(Cl)c(-c2cncc(C(F)(F)F)c2)c1 [(3R)-4-amino-3-{4-chloro-3-[5-(trifluoromethyl)(3-pyridyl)]phenyl}butanoic acid]
agonist or partial agonist activity | Cl.N#Cc1ccccc1COc1cc([C@H](CN)CC(=O)O)ccc1Cl [(3R)-4-amino-3-{4-chloro-3-[(2-cyanophenyl)methoxy]phenyl}butanoic acid hydrochloride]
agonist or partial agonist activity | Cl.NC[C@H](CC(=O)O)c1ccc(Cl)c(NCc2ccco2)c1 [(3R)-4-amino-3-{4-chloro-3-[(2-furylmethyl)amino]phenyl}butanoic acid hydrochloride]
agonist or partial agonist activity | NC[C@H](CC(=O)O)c1ccc(Cl)c(NCCc2ccccc2)c1 [(3R)-4-amino-3-{4-chloro-3-[(2-phenylethyl)amino]phenyl}butanoic acid]
agonist or partial agonist activity | Cl.NC[C@H](CC(=O)O)c1ccc(Cl)c(NS(=O)(=O)c2ccccn2)c1 [(3R)-4-amino-3-{4-chloro-3-[(2-pyridylsulfonyl)amino]phenyl}butanoic acid hydrochloride]
agonist or partial agonist activity | N#Cc1cccc(C(=O)Nc2cc([C@H](CN)CC(=O)O)ccc2Cl)c1 [(3R)-4-amino-3-{4-chloro-3-[(3-cyanophenyl)carbonylamino]phenyl}butanoic acid]
agonist or partial agonist activity | Cl.N#Cc1cccc(COc2cc([C@H](CN)CC(=O)O)ccc2Cl)c1 [(3R)-4-amino-3-{4-chloro-3-[(3-cyanophenyl)methoxy]phenyl}butanoic acid hydrochloride]
agonist or partial agonist activity | NC[C@H](CC(=O)O)c1ccc(Cl)c(NC(=O)c2cccc(F)c2)c1 [(3R)-4-amino-3-{4-chloro-3-[(3-fluorophenyl)carbonylamino]phenyl}butanoic acid]
agonist or partial agonist activity | Cl.NC[C@H](CC(=O)O)c1ccc(Cl)c(Cc2cccc([N+](=O)[O-])c2)c1 [(3R)-4-amino-3-{4-chloro-3-[(3-nitrophenyl)methyl]phenyl}butanoic acid hydrochloride]
agonist or partial agonist activity | NC[C@H](CC(=O)O)c1ccc(Cl)c(NCc2cccnc2)c1 [(3R)-4-amino-3-{4-chloro-3-[(3-pyridylmethyl)amino]phenyl}butanoic acid]
agonist or partial agonist activity | Cl.N#Cc1ccc(COc2cc([C@H](CN)CC(=O)O)ccc2Cl)cc1 [(3R)-4-amino-3-{4-chloro-3-[(4-cyanophenyl)methoxy]phenyl}butanoic acid hydrochloride]
agonist or partial agonist activity | NC[C@H](CC(=O)O)c1ccc(Cl)c(NC(=O)c2ccc([N+](=O)[O-])cc2)c1 [(3R)-4-amino-3-{4-chloro-3-[(4-nitrophenyl)carbonylamino]phenyl}butanoic acid]
agonist or partial agonist activity | CN(Cc1ccccc1)c1cc([C@H](CN)CC(=O)O)ccc1Cl.Cl [(3R)-4-amino-3-{4-chloro-3-[methylbenzylamino]phenyl}butanoic acid hydrochloride]
agonist or partial agonist activity | Cl.NC[C@@H](CC(=O)O)c1ccc(Cl)c(-c2cccnc2)c1 [(3S)-4-amino-3-(4-chloro-3-(3-pyridyl)phenyl)butanoic acid hydrochloride]
agonist or partial agonist activity | Cl.N#Cc1cccc(-c2cc([C@@H](CN)CC(=O)O)ccc2Cl)c1 [(3S)-4-amino-3-[4-chloro-3-(3-cyanophenyl)phenyl]butanoic acid hydrochloride]
agonist or partial agonist activity | Cl.NC[C@@H](CC(=O)O)c1ccc(Cl)c(NCc2ccncc2)c1 [(3S)-4-amino-3-{4-chloro-3-[(4-pyridylmethyl)amino]phenyl}butanoic acid hydrochloride]
agonist or partial agonist activity | Cl.NC[C@H](CC(=O)O)c1ccc(Cl)cc1-c1cccnc1 [Example 8, (3R)-4-Amino-3-[4-chloro-2-(3-pyridyl)phenyl]butanoic acid hydrochloride]
agonist or partial agonist activity | Cl.NC[C@H](CC(=O)O)c1ccc(Cl)cc1C(=O)c1ccccc1 [Example 11, (3R)-4-Amino-3-[4-chloro-2-(phenylcarbonyl)phenyl]butanoic acid hydrochloride]
agonist or partial agonist activity | NC[C@H](CC(=O)O)c1ccc(Cl)c(Nc2ccccc2C(=O)O)c1 [Example 13, 2-({5-[(1R)-2-Amino-1-(carboxymethyl)ethyl]-2-chlorophenyl}amino)benzoic acid]
agonist or partial agonist activity | NC[C@H](CC(=O)O)c1ccc(Cl)c(Oc2cccc(C(=O)O)c2)c1 [Example 22, 3-{5-[(1R)-2-Amino-1-(carboxymethyl)ethyl]-2-chlorophenoxy}benzoic acid]
agonist or partial agonist activity | Cl.NC[C@H](CC(=O)O)c1ccc(Cl)c(-c2ccc(C(=O)O)cc2)c1 [Example 24, 4-{5-[(1R)-2-Amino-1-(carboxymethyl)ethyl]-2-chlorophenyl}benzoic acid hydrochloride]
agonist or partial agonist activity | Cl.NC[C@H](CC(=O)O)c1ccc(Cl)c(-c2cccc(CO)c2)c1 [Example 28, (3R)-4-Amino-3-{4-chloro-3-[3-(hydroxymethyl)phenyl]phenyl}butanoic acid hydrochloride]
agonist or partial agonist activity | Cc1ncc(-c2cc([C@H](CN)CC(=O)O)ccc2Cl)cn1.Cl [Example 30, (3R)-4-Amino-3-[4-chloro-3-(2-methylpyrimidin-5-yl)phenyl]butanoic acid hydrochloride]
agonist or partial agonist activity | Cl.NC[C@H](CC(=O)O)c1ccc(Cl)c(-c2cccc(O)c2)c1 [Example 34, (3R)-4-Amino-3-[4-chloro-3-(3-hydroxyphenyl)phenyl]butanoic acid hydrochloride]
agonist or partial agonist activity | COc1cccc(-c2cc([C@H](CN)CC(=O)O)ccc2Cl)c1.Cl [Example 35, (3R)-4-Amino-3-[4-chloro-3-(3-methoxyphenyl)phenyl]butanoic acid hydrochloride]
agonist or partial agonist activity | Cl.NC[C@H](CC(=O)O)c1ccc(Cl)c(-c2ccccc2)c1 [Example 39, (3R)-4-Amino-3-(4-chloro-3-phenyl-phenyl)butanoic acid hydrochloride]
